For assay [1], the system named is Mus musculus. In words: Analgesic activity of compound in phase II mouse formalin activities at a dose range of […], s.c.; exhibited confounding effects. In kind it is functional, organism-based.
The test system of assay [2] is Mus musculus. Description: Analgesic activity of compound in phase I mouse formalin activities at a dose range of […], s.c.; exhibited confounding effects. The class given is functional, organism-based.
For assay [3], the system named is Mus musculus. In words: Analgesic activity of compound in phase I mouse formalin activities at a dose range of 0.4-3.1 mg, s.c. The class given is functional. The conditions noted are these: sc.
For assay [4], the system named is Mus musculus. Description: Analgesic activity of compound in phase II mouse formalin activities at a dose range of 0.4-3.1 mg, s.c. The class given is functional. The settings on record: sc.
The test system of assay [5] is Mus musculus. Description: Analgesic activity of compound in phase II mouse formalin activities at a dose range of 0.4-6.3 mg, s.c. In kind it is functional. The settings on record: sc.
The test system of assay [6] is Mus musculus. Description: Analgesic activity of compound in phase I mouse formalin activities at a dose range of 0.4-6.3 mg, s.c. The class given is functional. The settings on record: sc.

These results are taken from ChEMBL document CHEMBL1142041, “3-(2,5-Dihydro-1H-pyrrol-2-ylmethoxy)pyridines: synthesis and analgesic activity” (2005).

The term ED50 denotes the dose that gives a 50% effect, or the effect in half of the subjects. Higher therefore signals weaker potency.

In the case of `C[C@]1(COc2ccc(Cl)nc2)C=CCN1`, the 50% effective dose (ED50) entry in the assay with Mus musculus [1] and with Mus musculus [2] was “Counfounding effects” in each case.

For the compound `Clc1ccc(OC[C@H]2CCN2)cn1` [TEBANICLINE], the ED50 is 0.9 µmol/kg in the assay on Mus musculus [3] and 0.8 µmol/kg in the assay with Mus musculus [4].

Consider `C[C@@]1(COc2ccc(Cl)nc2)C=CCN1`, for which the 50% effective dose (ED50) result with Mus musculus [1] and in the assay with Mus musculus [2] was “Counfounding effects” throughout.

For the compound `C[C@]1(CNc2ccc(Cl)nc2)C=CCN1`, the ED50 result in the assay with Mus musculus [1] and with Mus musculus [2] was “Counfounding effects” each time.

Turning to `Clc1ccc(OC[C@H]2C=CCN2)cn1`, the ED50 in the assay on Mus musculus [5] and in the assay on Mus musculus [6] was 1.6 µmol/kg in each case.

In the case of `Clc1ccc(OC[C@@H]2C=CCN2)cn1`, the 50% effective dose (ED50) entry in the assay with Mus musculus [1] and in the assay on Mus musculus [2] was “Counfounding effects” in each case.

Consider `C[C@]1(COc2cccnc2)C=CCN1`, for which the ED50 entry in the assay on Mus musculus [1] and with Mus musculus [2] was “Counfounding effects” throughout.
